Source: patent US8802597B2, “Herbicidal pyrimidines” (E I du Pont de Nemours and Company, priority 2003, dated 2014)

Row | Structure (SMILES) | melting point [°C]
1 | CCOC(=O)c1nc(C(C)(C)C)nc(N)c1Br [Compound 36] | 69 to 70
2 | Nc1nc(C2CC2)nc(CO)c1Br [Compound 21] | 182 to 185
